In brackets after ≈: the same amount, converted by molar mass.
What was measured:
Enterococcus sp. = assay: in vitro antibacterial evaluation, MIC by broth dilution; type: cell-based; conditions: broth dilution, 18 hours at 35° C.
Summary of the method: (§1)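 Following National Committee for Clinical Laboratory Standards recommendations (M7-A2), susceptibility was measured by dilution in Muller-Hinton II […]. Bacteria were seeded at 5×10^5 CFU/mL against compound concentrations from 64 down to 0.06 μg/mL.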

Staphylococcus sp. = assay: as above; type: cell-based; conditions: broth dilution, 18 hours at 35° C.
Summary of the method: as §1

Streptococcus sp. = assay: as above; type: cell-based; conditions: broth dilution, 18 hours at 35° C.
Summary of the method: as §1

[1] = system: Staphylococcus aureus-SMITH (GC 4543); assay: acute lethal infection in mice; type: in vivo; conditions: acute lethal infection, female CD-1 mice, intraperitoneal challenge, intravenous 30 min. after infection, 7 day survival
Summary of the method: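 Female CD-1 mice (20±2 g) got an intraperitoneal bacterial challenge lethal to untreated controls within 24–48 hr. Compound was dosed intravenously 30 min after infection, five mice per dose. ED50 was calculated from 7-day survival pooled across 3 tests.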

[2] = anatomic pathology (histopathology of heart and kidney) in mice; type: in vivo; conditions: CD-1 mice, 20 mg/kg intravenously daily for 9 days, necropsy day 10, microscopic histopathology
Description: Samples of tissues from necropsied mice were formalin-fixed, paraffin-embedded, sectioned, stained with hematoxylin and eosin, and examined microscopically. Histopathologic findings were recorded. These findings were subjectively graded on a scale corresponding to slight, mild, moderate, marked and severe as compared to untreated controls.

Escherichia coli = assay: in vitro antibacterial evaluation, MIC by broth dilution; type: cell-based; conditions: 18 hours at 35° C.
Summary of the method: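 Broth dilution in Muller-Hinton II medium per NCCLS standard M7-A2, with an inoculum of 5×10^5 CFU/mL and antibiotic tested over 64-0.06 μg/mL. MIC was taken as the lowest concentration inhibiting visible growth.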

## CC(c1ccccc1)C1NC(=O)CNC(=O)C(CO)NC(=O)C(C(O)C2CN(Cc3ccc4ccccc4c3)C(=N)N2C2OC(CO)C(O)C(O)C2O)NC(=O)C(C(O)C2CNC(=N)N2)NC(=O)C(Cc2ccc(OC3OC(CO)C(OC4OC5COC6(OC5C(O)C4O)C4CC5CC(C4)CC6C5)C(O)C3O)cc2)NC1=O (stereo not drawn) [Example 78, Cyclo[glycyl-β-methylphenylalanyl-O-[4-O-[4,6-O-(2-adamantylidene)hexopyranosyl]hexopyranosyl]tyrosyl-3-(2-iminoimidazolidin-4-yl)seryl-3-[3-hexopyranosyl-2-imino-1-(2-naphthylmethyl)-imidazolidin-4-yl]serylseryl]]
Enterococcus sp.; Enterococcus avium (GC 4558)
  MIC Enterococcus avium (GC 4558): 4 µg/mL (≈ 2.55 µM)
Enterococcus sp.; Enterococcus faecalis (ATCC 29212)
  MIC Enterococcus faecalis (ATCC 29212): 8 µg/mL (≈ 5.1 µM)
Enterococcus sp.; Enterococcus faecalis (GC 4552)
  MIC Enterococcus faecalis (GC 4552): 8 µg/mL (≈ 5.1 µM)
Enterococcus sp.; Enterococcus faecalis (GC 4553)
  MIC Enterococcus faecalis (GC 4553): 8 µg/mL (≈ 5.1 µM)
Enterococcus sp.; Enterococcus faecalis (GC 4554)
  MIC Enterococcus faecalis (GC 4554): 16 µg/mL (≈ 10.2 µM)
Enterococcus sp.; Enterococcus faecalis (GC 6189)
  MIC Enterococcus faecalis (GC 6189): 16 µg/mL (≈ 10.2 µM)
Enterococcus sp.; Enterococcus faecium (GC 2243)
  MIC Enterococcus faecium (GC 2243): 8 µg/mL (≈ 5.1 µM)
Enterococcus sp.; Enterococcus faecium (GC 4556)
  MIC Enterococcus faecium (GC 4556): 16 µg/mL (≈ 10.2 µM)
Enterococcus sp.; Enterococcus faecium (GC 4557)
  MIC Enterococcus faecium (GC 4557): 2 µg/mL (≈ 1.28 µM)
Enterococcus sp.
  MIC Enterococcus avium (GC 4558): 4 µg/mL (≈ 2.55 µM)
  MIC Enterococcus faecalis (ATCC 29212): 8 µg/mL (≈ 5.1 µM)
  MIC Enterococcus faecalis (GC 2242): 16 µg/mL (≈ 10.2 µM)
  MIC Enterococcus faecalis (GC 2691): 16 µg/mL (≈ 10.2 µM)
  MIC Enterococcus faecalis (GC 3059): 16 µg/mL (≈ 10.2 µM)
  MIC Enterococcus faecalis (GC 4552): 8 µg/mL (≈ 5.1 µM)
  MIC Enterococcus faecalis (GC 4553): 8 µg/mL (≈ 5.1 µM)
  MIC Enterococcus faecalis (GC 4554): 16 µg/mL (≈ 10.2 µM)
  MIC Enterococcus faecalis (GC 6189): 16 µg/mL (≈ 10.2 µM)
  MIC Enterococcus faecium (GC 2243): 8 µg/mL (≈ 5.1 µM)
  MIC Enterococcus faecium (GC 4556): 16 µg/mL (≈ 10.2 µM)
  MIC Enterococcus faecium (GC 4557): 2 µg/mL (≈ 1.28 µM)
Enterococcus sp.; strain GC 2242
  MIC Enterococcus faecalis (GC 2242): 16 µg/mL (≈ 10.2 µM)
Enterococcus sp.; strain GC 2691
  MIC Enterococcus faecalis (GC 2691): 16 µg/mL (≈ 10.2 µM)
Enterococcus sp.; strain GC 3059
  MIC Enterococcus faecalis (GC 3059): 16 µg/mL (≈ 10.2 µM)
Staphylococcus sp.; strain ATCC 29213
  MIC Staphylococcus aureus (ATCC 29213): 8 µg/mL (≈ 5.1 µM)
Staphylococcus sp.; strain GC 1131
  MIC Staphylococcus aureus (GC 1131): 8 µg/mL (≈ 5.1 µM)
Staphylococcus sp.; strain GC 3051
  MIC Staphylococcus aureus (GC 3051): 8 µg/mL (≈ 5.1 µM)
Staphylococcus sp.; strain GC 3053
  MIC Staphylococcus aureus (GC 3053): 8 µg/mL (≈ 5.1 µM)
Staphylococcus sp.; strain GC 4541
  MIC Staphylococcus aureus (GC 4541): 4 µg/mL (≈ 2.55 µM)
Staphylococcus sp.; strain GC 4542
  MIC Staphylococcus aureus (GC 4542): 8 µg/mL (≈ 5.1 µM)
Staphylococcus sp.; strain GC 4543
  MIC Staphylococcus aureus-SMITH (GC 4543): 4 µg/mL (≈ 2.55 µM)
Staphylococcus sp.; strain GC 4544
  MIC Staphylococcus aureus (GC 4544): 8 µg/mL (≈ 5.1 µM)
Staphylococcus sp.; strain GC 4545
  MIC Staphylococcus aureus (GC 4545): 8 µg/mL (≈ 5.1 µM)
Staphylococcus sp.; strain GC 4546
  MIC Staphylococcus haemolyticus (GC 4546): 4 µg/mL (≈ 2.55 µM)
Staphylococcus sp.; strain GC 4547
  MIC Coagulase Negative Staphylococcus (GC 4547): 4 µg/mL (≈ 2.55 µM)
Staphylococcus sp.; strain GC 4548
  MIC Coagulase Negative Staphylococcus (GC 4548): 4 µg/mL (≈ 2.55 µM)
Staphylococcus sp.; strain GC 4549
  MIC Coagulase Negative Staphylococcus (GC 4549): 8 µg/mL (≈ 5.1 µM)
Staphylococcus sp.; strain GC 4551
  MIC Coagulase Negative Staphylococcus (GC 4551): 8 µg/mL (≈ 5.1 µM)
Staphylococcus sp.; strain GC 6257
  MIC Coagulase Negative Staphylococcus (GC 6257): 2 µg/mL (≈ 1.28 µM)
Streptococcus sp.
  MIC Streptococcus agalactiae (GC 4564): 1 µg/mL (≈ 0.638 µM)
  MIC Streptococcus pneumoniae (ATCC 6301): 1 µg/mL (≈ 0.638 µM)
  MIC Streptococcus pneumoniae (GC 1894): 0.25 µg/mL (≈ 0.159 µM)
  MIC Streptococcus pneumoniae (GC 4565): 2 µg/mL (≈ 1.28 µM)
  MIC Streptococcus pyogenes (GC 4563): 0.5 µg/mL (≈ 0.319 µM)
Streptococcus sp.; strain ATCC 6301
  MIC Streptococcus pneumoniae (ATCC 6301): 1 µg/mL (≈ 0.638 µM)
Streptococcus sp.; strain GC 1894
  MIC Streptococcus pneumoniae (GC 1894): 0.25 µg/mL (≈ 0.159 µM)
Streptococcus sp.; strain GC 4563
  MIC Streptococcus pyogenes (GC 4563): 0.5 µg/mL (≈ 0.319 µM)
Streptococcus sp.; strain GC 4564
  MIC Streptococcus agalactiae (GC 4564): 1 µg/mL (≈ 0.638 µM)
Streptococcus sp.; strain GC 4565
  MIC Streptococcus pneumoniae (GC 4565): 2 µg/mL (≈ 1.28 µM)
[1]
  median effective dose (ED50), Staphylococcus aureus-SMITH (GC 4543): 2 mg/kg
[2]
  Anatomical Pathology (Day 10), Heart: 0
  Anatomical Pathology (Day 10), Kidney: ++
Escherichia coli
  MIC Escherichia coli (ATCC 25922): 128 µg/mL (≈ 81.6 µM)
  MIC Escherichia coli (GC 4559): 128 µg/mL (≈ 81.6 µM)
  MIC Escherichia coli (GC 4560): 4 µg/mL (≈ 2.55 µM)
